The values below come from patent US5639793A, “Mammalian DNA topoisomerase II inhibitor and method” (The University of North Carolina at Chapel Hill, priority 1995, dated 1997).

Entries after “also recorded” stand apart in the source; their conditions may differ. Like-named read-outs stand apart in the source and are kept apart here.

The test system of data set [1] is human osteogenic sarcoma (HOS) cells. In words: Protein-linked DNA breaks in HOS cells (K-SDS precipitation). The conditions noted are these: for Induction of protein-linked DNA breaks: 30 minutes; for Induction of protein-linked DNA breaks in HOS cells: 20 micromolar, FIG. 9B; for Reversal of protein-linked DNA breaks after drug removal: an hour after removal. The class given is cell-based. The procedure:
Quantitation of protein-linked DNA breaks was performed according to a published procedure (Rowe). DNA in growing cells was labeled by adding methyl-^3 H-thymidine. […] Cells were lysed and protein-linked DNA complexes were precipitated by the K-SDS precipitiation method (Rowe).
(§1) A modified K-SDS precipitation assay was used to quantitate in vivo formation of protein-linked DNA breaks (Rowe). HOS cells were grown in Eagle's medium. The DNA in logarithmically growing cells (about 2×10^5 cells) was labelled by adding tritiated methyl-thymidine (specific activity: 40 Ci/mmol) into the medium to a final concentration of 0.5 microCurie per ml. After overnight incubation, cells were washed and incubated for another 2 hours at 37° C. The cells were then treated with various concentrations of drugs for 30 minutes. The cells were lysed with 1 ml prewarmed lysis solution containing 1.25% SDS, 5 mM EDTA (pH 8) salmon sperm DNA (0.4 mg/ml).
(§2) The lysate was transferred to a 1.5 ml Eppendorf tube and after syringing 8 times through a 22 G 11/2 gauge needle, 250 microliter of 325 mM KCl were added. The sample was cooled on ice for 10 minutes and centrifuged at 4° C. The pellet was resuspended in 10 mM Tris-HCl (pH 8)-100 mM KCl-1 mM EDTA and salmon sperm DNA (0.1 mg/ml) and placed at 65° C. for 10 minutes with occasional mixing. The suspension was cooled on ice for 10 minutes and recentrifuged. The pellet was washed again before resuspending in water (65° C.). The suspension was combined with 4 ml scintillation fluid and the radioactivity was determined.
(§3) Protein-linked DNA breaks assays were performed as described for Example 4 using HOS and HOS colR cells. Cells were treated with 20 micromolar […], TFC and TMBC.

Data set [2] deals with mammalian DNA topoisomerase II. In words: P4 DNA unknotting assay, topoisomerase II inhibition in vitro. In kind it is biochemical, HeLa (human). Conditions: for Topoisomerase II activity on decreasing drug concentration (P4 DNA unknotting): 2-fold serial dilutions; for Potency relative to VP-16 (topoisomerase II inhibition): more potent than VP-16. The procedure:
DNA topoisomerase II was purified as described (Kashiwada). Briefly, a 150 mM NaCl extract from Triton X-100-treated HeLa cell nuclei was obtained. Salt was dialyzed and the partially purified enzyme was loaded on a heparin-Sepahrose CL-6B column and batch eluted with a buffer containing increasing salt concentrations.
Enzyme activity was measured using the P4 DNA unknotting assay (Liu, 1981). P4 DNA isolated from bacteriophage P4 consists of monomeric DNA circles with their cohesive ends hydrogen-bonded and contains multiple topological knots. Such highly knotted P4 DNA can be converted to its simple circular form by mammalian DNA topoisomerase II, and can be used as a sensitive assay to detect topoisomerase II activity.
P4 DNA unknotting reactions by topoisomerase II were performed in the absence or presence of potential topoisomerase II inhibitors. […] Products from the […] reactions were run out on an agarose gel to determine the extent of P4 DNA unknotting and stained with ethidium bromide.
Topoisomerase II was purified from calf thymus by a known method (Kashiwada). P4 DNA was prepared as described (Liu, 1983). Agarose gel assays for P4 DNA unknotting were performed as follows. Reactions (20 microliters) containing 50 mM Tris-HCl (pH 7.5), 100 mM KCl, 10 mM magnesium chloride, 1 mM ATP, 0.5 mM dithiothreitol, 0.5 mM EDTA, bovine serum albumin (30 microgram/ml), 100 ng P4 DNA, one unit of HeLa DNA topoisomerase II, and varying concentrations of topoisomerase II inhibitors were incubated at 37° C. After 30 minutes, reactions were terminated by addition of a solution containing 10% SDS. The samples were electrophoresed through a 1% agarose gel in 90 mM Trisborate (pH 8.3)-2 mM EDTA buffer (Rowe).

The next data set has as its system HIV replication. The conditions noted are these: background (Baum); cited from earlier work.
For data set [3] the following is noted: background; cited from earlier work.
The subject of data set [4] is human osteogenic sarcoma (HOS) cells. Description: HOS cell growth inhibition (antiproliferative activity). In kind it is cell-based. The procedure: (§4) Additionally, baby hamster kidney (BHK) cell growth inhibition by these derivatives was investigated.
(§5) Cell growth inhibition assays were performed according to published procedures (Crumpton).
(§6) The HOS cell growth inhibition assays were done according to a published procedure (Crumpton). All cells were grown in Eagle's minimium essential medium supplemented with 10% fetal bovine serum. Flasks were seeded at a density of 1×10^3 cell/cm^2 for monolayer cultures or 2×10^4 /ml for suspension cultures. Suspension cultures were used immediately for drug addition after dilution to a suitable starting density, and, about 24 hours after seeding, the compounds to be tested were added to the monolayer cultures. […] Control flasks also contained 0.1% DMSO.
(§7) Colonies of about 50 or more cells were counted and the plating efficiency was calculated as the per cent cells that were able to form colonies (Goz).

Another data set relates to HOS cells. In words: Plating efficiency / cytotoxicity in HOS cells. The conditions noted are these: one-hour treatment, Table 1. The procedure: Plating efficiencies are indicative of a compound's cytotoxicity (Goz).
as §7

Data set [5] has as its system HOS cells resistant to colchicine (HOS colR), expressing p170 glycoprotein. In words: HOS colR cell growth inhibition. The conditions noted are these: for EC50: HOS colR cells; for EC50 for HOS colR cells compared with HOS cells: HOS colR versus HOS not expressing p170. The class given is cell-based, human. The procedure:
as §5, §6, §7

The subject of data set [6] is BHK-B cells (vincristine-selected, expressing p170 glycoprotein). The conditions noted are these: for BHK-B growth inhibition compared with BHK, in words: BHK-B versus BHK; for Export by the drug efflux pump: p170 glycoprotein, conclusion from BHK-B data; for EC50: read-out: BHK-B-EC50. The procedure: as §5
BHK-B cells are baby hamster kidney cells that have been selected with 0.05 microgram/ml vincristine and that express p170 glycoprotein. Sensitivity of BHK-B cells to TFC, TMBC and vincristine was investigated.
as §6, §7

Data set [7] deals with BHK-Ve cells (BHK-B cells treated with vincristine in the presence of verapamil). In words: BHK-Ve cell growth inhibition. In kind it is cell-based, hamster. The procedure: as §5
Verapamil inhibits drug binding to the p170 glycoprotein drug efflux pump.
as §6, §7

The subject of another data set is HOS colR cells. In words: Protein-linked DNA breaks in HOS colR cells. In kind it is cell-based, human. The conditions noted are these: 20 micromolar, FIG. 9B. The procedure:
The amount of protein-linked DNA breaks caused by VP-16, TFC and TMBC were compared in HOS and HOS colR cells to determine whether […] glycoprotein expression would affect these drugs' ability to induce protein-linked DNA breaks and inhibit topoisomerase II activity.
as §1, §2, §3

Data set [8] relates to baby hamster kidney (BHK) cells. In words: BHK cell growth inhibition. In kind it is cell-based. The procedure: as §4, §5, §6, §7
Data set [9] concerns mammalian DNA topoisomerase II. Conditions: D'Arpa; cited from earlier work.
Where [10] appears, read: read-out: EC50, HOS cell replication.
Setting [11] is: 10-50 micromolar TFC, increasing concentrations TMBC.
[12] abbreviates: Table 2, read-out: HOS ColR EC50.

As to `COc1cc2c(c(OC)c1OC)-c1ccc(OC)c(=O)cc1[C@@H](NC(C)=O)CC2` [Colchicine, colchicine, reference compound], the “Induction of protein-linked DNA breaks” value in [1] (colchicine 50 micromolar) is given as “did not induce protein-linked DNA breaks”. Also, in [2] (concentrations as high as 200 micromolar), the “Inhibition of topoisomerase II activity” value was “does not appear to inhibit topoisomerase II activity”. The “Inhibition of HIV replication” value in the data set on HIV replication was “inhibitor of HIV replication”. The “Toxicity at therapeutic doses” value in [3] is reported as “usually at toxic or nearly toxic doses”.
As usually defined, the EC50 is the concentration at which the effect is half-maximal. As to `O=C(N[C@H]1CCc2cc(O)c(O)c(O)c2-c2ccc(O)c(=O)cc21)C(F)(F)F` [TFC, N-trifluoroacetyl-1,2,3,10-tetrademethyldeactylcolchicine], the EC50 in [4] (Table 1, read-out: HOS--EC50) turned out to be 28 µM; in [4] (setting [10]) it was 28 µM; in data set [5] (setting [12]), 26 µM; in [5] (read-out: EC50, HOS colR cells), 26 µM; in data set [6] (BHK-B cells, Table 2), 82 µM; in data set [7] (Table 2, read-out: BHK-Ve-EC50), 37 µM. Besides, the EC50 in [7] (read-out: EC50, BHK-Ve cells) was 37 µM. In the data set with HOS cells, this molecule had an HOS--LD50 of 14 µM. Moreover, the “Induction of protein-linked DNA breaks in HOS cells” value (“Induction … in HOS cells” for short) in [1] is “can induce protein-linked DNA cleavage to a lesser extent”. In addition, the “Induction of protein-linked DNA breaks” value in data set [1] (setting [11]) was “induces DNA breaks in a dose-dependent manner; also recorded: induce protein-linked DNA breaks in a dose-dependent fashion”. Besides, the “Reversal of protein-linked DNA breaks after drug removal” value in data set [1] is “within an hour all the protein-linked DNA breaks have been reversed”. For the same molecule, the “Protein-linked DNA breaks reversed within half an hour of drug removal” value in [1] (within half an hour after removal) is recorded as “approximately 90%”. For the same molecule, in data set [2] (50 to 6.25 micromolar, FIG. 8 lanes 7-10), the “Topoisomerase II activity on decreasing drug concentration (P4 DNA unknotting)” value is recorded as “more striking increase of enzyme activity as the concentration of TFC is decreased”. For the same molecule, in [2], the “Potency relative to VP-16 (topoisomerase II inhibition)” value is “about 2 fold”. Besides, the “EC50 for HOS colR cells compared with HOS cells” value in data set [5] is listed as “remained virtually unchanged”. Further, the “BHK-B growth inhibition compared with BHK, in words” value in data set [6] is “inhibited by approximately similar concentrations”. The “Export by the drug efflux pump” value in [6] is “are not”. Besides, in the data set on HOS colR cells, the “Induction of protein-linked DNA breaks in HOS colR cells” value (shortened to “Induction … in HOS colR cells”) is “Neither protein-linked DNA cleavage by either TFC or TMBC appear to be affected by the expression of g170 glycoprotein”.
As for `O=C(N[C@H]1CCc2cc(O)c(O)c(O)c2-c2ccc(O)c(=O)cc21)c1cc(O)c(O)c(O)c1` [TMBC, N-(3',4',5'-trihydroxybenzoyl)-1,2,3,10-tetrademethyldeacetylcolchicine], the EC50 in data set [4] (Table 1, read-out: HOS--EC50) was 21 µM; in data set [4] (setting [10]), 21 µM; in data set [8] (Table 1, read-out: BHK--EC50), 28 µM; in data set [8] (read-out: EC50, BHK growth inhibition), 28 µM; in [5] (setting [12]), 28 µM; in data set [5] (read-out: EC50, HOS colR cells) it was 28 µM. The EC50 amounted to 13 µM in data set [6] (BHK-B cells, Table 2); 24 µM in data set [7] (Table 2, read-out: BHK-Ve-EC50); 24 µM in data set [7] (read-out: EC50, BHK-Ve cells). In the data set on HOS cells, this molecule yielded an HOS--LD50 of 18 µM. Moreover, the “Induction … in HOS cells” value in [1] is “can induce protein-linked DNA cleavage to a lesser extent”. The “Induction of protein-linked DNA breaks” value in data set [1] (setting [11]) is listed as “almost as effective as TFC for protein-linked DNA break induction; also recorded: induce protein-linked DNA breaks in a dose-dependent fashion”. Also, the “Reversal of protein-linked DNA breaks after drug removal” value in data set [1] is “more slowly reversed than for TFC, so that after an hour's time after reversal some protein-linked DNA breaks still remain”. Further, in data set [2], the “Potency relative to VP-16 (topoisomerase II inhibition)” value is on record as around 17 fold. Moreover, in [5], the “EC50 for HOS colR cells compared with HOS cells” value is “remained virtually unchanged”. Further, the “BHK-B growth inhibition compared with BHK, in words” value in [6] is reported as “inhibited by approximately similar concentrations”. Also, the “Export by the drug efflux pump” value in data set [6] was “are not”. Besides, the “Induction … in HOS colR cells” value in the data set on HOS colR cells is recorded as “Neither protein-linked DNA cleavage by either TFC or TMBC appear to be affected by the expression of g170 glycoprotein”.
`COc1cc([C@@H]2c3cc4c(cc3[C@@H](O[C@@H]3O[C@@H]5CO[C@@H](C)O[C@H]5[C@H](O)[C@H]3O)[C@H]3COC(=O)[C@H]23)OCO4)cc(OC)c1O` [VP-16, etoposide, reference compound]: the “Induction … in HOS cells” value in [1] is “very effective to cause protein-linked DNA breaks”. Also, in data set [2] (100 to 12.5 micromolar, FIG. 8 lanes 3-6), the “Topoisomerase II activity on decreasing drug concentration (P4 DNA unknotting)” value is recorded as “increase of topoisomerase II activity as the concentration of VP-16 is decreased”. In addition, in the data set with HOS colR cells, the “Induction … in HOS colR cells” value is listed as “limited effect in causing protein-linked DNA breaks”. Besides, the “Topoisomerase II inhibition, known” value in [9] was “known to inhibit topoisomerase II activity”.
On to `CC[C@]1(O)C[C@H]2CN(CCc3c([nH]c4ccccc34)[C@@](C(=O)OC)(c3cc4c(cc3OC)N(C=O)[C@H]3[C@@](O)(C(=O)OC)[C@H](OC(C)=O)[C@]5(CC)C=CCN6CC[C@]43[C@@H]65)C2)C1` [Vincristine, reference compound], for which, in data set [8] (Table 1), the BHK--EC50 is 0.006 µg/mL. Further, the BHK-B-EC50 in [6] (BHK-B cells, Table 2) turned out to be 0.34 µg/mL. The “Concentration necessary to inhibit BHK-B growth relative to BHK” value in [6] (hamster, bhk-b vs bhk cells) is “approximately 50 fold”. In [6], the “Export by the drug efflux pump” value is on record as “exported by the drug efflux pump”. Further, the “BHK-Ve-EC50 / concentration necessary to inhibit BHK-Ve cell growth” value in data set [7] (Table 2) turned out to be 2.7 µg/mL.
